# Measurements published in US9370506B2, “Modulators of aldehyde dehydrogenase and methods of use thereof” (The Board of Trustees of the Leland Stanford Junior …, priority 2008, dated 2016).
# Positions count from the first letter of the chain named.
# Target: T1, ALDH2 (Homo sapiens, UniProt P05091, E504K)
# T1 sequence (P05091 18-517 E504K): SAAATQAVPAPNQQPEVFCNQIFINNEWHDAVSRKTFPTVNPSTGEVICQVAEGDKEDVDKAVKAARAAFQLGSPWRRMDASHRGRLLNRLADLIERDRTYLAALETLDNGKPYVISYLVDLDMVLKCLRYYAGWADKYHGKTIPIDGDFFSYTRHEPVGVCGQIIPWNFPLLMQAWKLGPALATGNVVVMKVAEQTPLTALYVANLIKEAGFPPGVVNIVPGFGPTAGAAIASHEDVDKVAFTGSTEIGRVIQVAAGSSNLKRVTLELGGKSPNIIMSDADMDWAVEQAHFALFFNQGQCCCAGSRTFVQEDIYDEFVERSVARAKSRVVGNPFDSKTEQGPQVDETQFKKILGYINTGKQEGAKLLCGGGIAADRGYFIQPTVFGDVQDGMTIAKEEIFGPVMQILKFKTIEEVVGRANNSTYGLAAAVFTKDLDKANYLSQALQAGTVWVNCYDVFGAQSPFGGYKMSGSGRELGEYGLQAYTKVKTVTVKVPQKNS
# Experiment: Screening for ALDH2 agonists (NAD+ to NADH, optionally diaphorase/resazurin-coupled)
# Format: biochemical
# Conditions: increase of ALDH2 activity; 10 mM acetaldehyde as substrate
# Experimental: Compounds were screened using a method as depicted schematically in FIG. 4. Essentially, the reaction is carried out at 25° C. in 0.1 NaPPi buffer, pH 9.5, 2.4 mM NAD^+ and 10 mM acetaldehyde as the substrate. Enzymatic activity is measured by a reductive reaction of NAD^+ to NADH at 340 nm. Alternatively, the production of NADH can be coupled with another enzymatic reaction that consumes NADH and that provides for a detectable signal. An example of such an enzymatic reaction is a diaphorase-based reaction, which reduces resazurin to its […] fluorescent compound resorufin.
# For example, a 120 μl reaction mixture for ALDH enzymatic activity comprises the following components:
# 43 μl 150 mM sodium pyrophosphate (NaPPi) buffer, pH 9.0;
# 15 μl 80 mM acetaldehyde;
# 1 μl of resazurin (0.2 mg/ml in H2O);
# 1 μl of diaphorase (1 unit, e.g., from Clostridium kluyveri);
# 2 μl of variant ALDH2 (e.g., 2 μl of variant ALDH2 at (0.5-2 μg/μl); and
# 28 μl of a solution comprising an agent to be tested, which agent has been resuspended in an appropriate solvent (e.g., an aqueous solution, DMSO, and the like).
# Approximately 65,000 compounds were screened. A number of compounds were identified that increase the activity of ALDH2.
row,Structure (SMILES),EC50 [µM]
1,"COc1c(C(=O)NCc2ccc3c(c2)OCO3)ccc2ccccc12 [Alda-52, 1-methoxy-naphthalene-2-carboxylic acid (benzo[1,3]dioxol-5-ylmethyl)-amide]",3
2,"O=C(NCc1ccc2c(c1)OCO2)c1cc(-n2cnnc2)ccc1Cl [Alda-53, N-benzo[1,3]dioxol-5-ylmethyl-2-chloro-5-[1,2,4]triazol-4-yl-benzamide]",1.09
3,"CCn1cnc2c(=O)oc3ccc(S(=O)(=O)NCc4ccc5c(c4)OCO5)cc3c21 [Alda-54, 1-ethyl-4-oxo-1,4-dihydro-chromeno[3,4-d]imidazole-8-sulfonic acid (benzo[1,3]dioxol-5-ylmethyl)-amide]",1.72
4,"CCOC(=O)c1cc(-c2ccc(C)cc2)n(CCC(=O)N2CCN(c3ccccn3)CC2)c1C [Alda-56, 2-methyl-1-[3-oxo-3-(4-pyridin-2-yl-piperazin-1-yl)-propyl]-5-p-tolyl-1H-pyrrole-3-carboxylic acid ethyl ester]",3.65
5,"CCCCC(=O)Nc1cc(-c2ccc(C)cc2)no1 [Alda-57, pentanoic acid (3-p-tolyl-isoxazol-5-yl)-amide]",1.4
6,"NC(=O)c1cc(S(=O)(=O)NCc2ccc3c(c2)OCO3)cs1 [Alda-59, 4-[(benzo[1,3]dioxol-5-ylmethyl)-sulfamoyl]-thiophene-2-carboxylic acid amide]",4.6
7,"Cc1ccc(CNS(=O)(=O)c2cc(-c3cc(C)no3)ccc2C)cc1 [Alda-60, 2-methyl-N-(4-methyl-benzyl)-5-(3-methyl-isoxazol-5-yl)-benzene sulfonamide]",4.96
8,"Cc1ccc(CNS(=O)(=O)c2cc(-c3onc(C)c3C)ccc2C)cc1 [Alda-61, 5-(3,4-dimethyl-isoxazol-5-yl)-2-methyl-N-(4-methyl-benzyl)-benzene sulfonamide]",6.44
9,"COc1cccc(CNc2nccn(-c3ccc(C)c(C)c3)c2=O)c1 [Alda-62, 1-(3,4-dimethyl-phenyl)-3-(3-methoxy-benzylamino)-1H-pyrazin-2-one]",14.7
10,"COc1ccccc1CNc1nccn(-c2ccc3c(c2)OCCO3)c1=O [Alda-63, 1-(2,3-dihydro-benzo[1,4]dioxin-6-yl)-3-(2-methoxy-benzylamino)-1H-pyrazin-2-one]",12.4
11,"O=C(C1COc2cc(S(=O)(=O)NCc3ccccc3Cl)ccc2O1)N1CCCCCC1 (centres unmarked) [Alda-64, 2-(azepane-1-carbonyl)-N-(2-chloro-benzyl)-2,3-dihydro-benzo[1,4]dioxine-6-sulfonamide]",2.2
12,"Cc1cc(C)cc(NC(=O)CSC2=Nc3ccccc3C3=NC(C(C)C)C(=O)N23)c1 (centres unmarked) [Alda-65, N-(3,5-dimethyl-phenyl)-2-(2-isopropyl-3-oxo-2,3-dihydro-imidazo[1,2-c]quinazolin-5-ylsulfanyl)-acetamide]",8.41
13,"Cc1ccc(CNC(=O)C(C)SC2=Nc3ccccc3C3=NC(C(C)C)C(=O)N23)cc1 (centres unmarked) [Alda-66, 2-(2-isopropyl-3-oxo-2,3-dihydro-imidazo[1,2-c]quinazolin-5-ylsulfanyl)-N-(4-methyl-benzyl)-propionamide]",2.66
14,"Cc1ccc(-n2ncc3c(N(CCO)Cc4ccccc4)ncnc32)cc1Cl [Alda-67, 2-{benzyl-[1-(3-chloro-4-methyl-phenyl)-1H-pyrazolo[3,4-d]pyrimidin-4-yl]-amino}-ethanol]",3.42
15,"Cc1ccc(N2CC(c3nc(-c4cccnc4)no3)CC2=O)cc1Cl (centres unmarked) [Alda-69, 1-(3-chloro-4-methyl-phenyl)-4-(3-pyridin-3-yl-[1,2,4]oxadiazol-5-yl)-pyrrolidin-2-one]",8.9
16,"Cc1ccc(N2CC(c3nc(-c4ccncc4)no3)CC2=O)cc1F (centres unmarked) [Alda-70, 1-(3-fluoro-4-methyl-phenyl)-4-(3-pyridin-4-yl-[1,2,4]oxadiazol-5-yl)-pyrrolidin-2-one]",5.57
17,"Cc1ccc(CNC(=O)Cn2c3ccccc3c3cn[nH]c(=O)c32)cc1 [Alda-71, N-(4-methyl-benzyl)-2-(1-oxo-1,2-dihydro-2,3,9-triaza-fluoren-9-yl)-acetamide]",16.6
18,"O=C(Cn1c2ccccc2c2cn[nH]c(=O)c21)NCc1ccc2c(c1)OCO2 [Alda-72, N-benzo[1,3]dioxol-5-ylmethyl-2-(1-oxo-1,2-dihydro-2,3,9-triaza-fluoren-9-yl)-acetamide]",2.92
19,"Cc1ccc(-n2cc(-c3ccccc3)c3c(N4CCN(CCO)CC4)ncnc32)cc1Cl [Alda-73, 2-{4-[7-(3-chloro-4-methyl-phenyl)-5-phenyl-7H-pyrrolo[2,3-d]pyrimidin-4-yl]-piperazin-1-yl}-ethanol]",3.55

# Target: T2, E488K ALDH1 mutant recombinant protein (Homo sapiens, UniProt P00352, E488K)
# T2 sequence (P00352 1-501 E488K): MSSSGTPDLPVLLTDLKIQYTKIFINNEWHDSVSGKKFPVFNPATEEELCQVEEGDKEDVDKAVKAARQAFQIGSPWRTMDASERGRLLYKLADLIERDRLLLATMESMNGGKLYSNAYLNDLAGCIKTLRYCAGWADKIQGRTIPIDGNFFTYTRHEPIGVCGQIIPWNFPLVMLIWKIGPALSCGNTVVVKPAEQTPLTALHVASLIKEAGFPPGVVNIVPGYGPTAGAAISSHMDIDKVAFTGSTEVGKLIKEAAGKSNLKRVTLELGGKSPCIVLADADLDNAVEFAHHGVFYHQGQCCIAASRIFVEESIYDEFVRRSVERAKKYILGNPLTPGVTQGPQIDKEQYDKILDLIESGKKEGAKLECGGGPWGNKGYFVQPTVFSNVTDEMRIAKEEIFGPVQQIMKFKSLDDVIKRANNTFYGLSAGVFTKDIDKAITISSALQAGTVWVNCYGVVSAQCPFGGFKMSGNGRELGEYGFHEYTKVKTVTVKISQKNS
# Experiment: High throughput screening against E488K ALDH1 mutant
# Format: biochemical
# Conditions: octylaldehyde and phenylacetaldehdye as substrates
# Description: The screening assays used octylaldehyde (an example of longer chain aliphatic aldehyde) and phenylacetaldehdye (an example of aromatic aldehyde), instead of acetaldehyde.
row,Structure (SMILES),identified as ALDH1 activator
1,"C=CCn1c(C(C)NC(=O)c2ccccc2)nc2ccccc21 (centres unmarked) [Alda-81, N-[1-(1-allyl-1H-benzoimidazol-2-yl)-ethyl]-benzamide]",ALDH1 activators
2,"COc1ccc(C2C(C#N)=C(C)NC3=C2C(=O)CC(c2ccc(Cl)cc2)C3)cc1 (centres unmarked) [Alda-83, 7-(4-chloro-phenyl)-4-(4-methoxy-phenyl)-2-methyl-5-oxo-1,4,5,6,7,8-hexahydro-quinoline-3-carbonitrile]",ALDH1 activators

# Target: T3, ALDH2 isozyme (Homo sapiens, UniProt P05091)
# T3 construct: made in house; host or cells: BL21 E. coli
# T3 sequence (P05091 18-517): T1 sequence (P05091 18-517 E504K) with K487E
# Experiment: ALDH2 enzymatic activity, spectrophotometric NAD+ to NADH assay
# Format: biochemical
# Conditions: 500 uM & 1000 uM; acetaldehyde as substrate; FIG. 17
# Experimental: Reagents for plant-derived compounds safrole, isosafrole, piperine, sesamin, capsaicin were purchased from Sigma-Aldrich Chemicals and dihydromethysticin was purchased from AvaChem. Scientific. Piperine related compounds, Alda-101 to Alda-112, were synthesized by standard organic chemistry. All testing compounds were dissolved in dimethyl-sulfoxide (DMSO) to obtain a stock solution of 20 mM. Different recombinant ALDH isozymes with a His-epitope tag at the N-terminus were constructed, cloned and expressed in BL21 E. coli host cells according published methods (Chen et al., 2008 Science 321:1493). The bacteria were subjected to 0.5 mM IPTG induction for protein expression at 30° C. Purification of the recombinant proteins by affinity nickel columns were carried out using a standard protocol according to manufacturer's instructions (Novagen, Wis., USA).
# ALDH enzymatic activity was determined spectrophotometrically using purified recombinant protein (15 ug) in the reductive reaction of NAD^+ to NADH at λ340 nm (Rex et al., 1985, Alcohol Clin Exp Res 9: 147). All the assays in the presence of absence of a testing compound were carried out at 25° C. in […] pyrophosphate buffer, pH=9.5, 2.4 mM NAD+ and 10 mM acetaldehyde or phenylacetaldehyde as a substrate.
row,Structure (SMILES),effect on enzymatic activity of ALDH2 isozyme
1,"C=CCc1ccc2c(c1)OCO2 [safrole, 5-(2-propenyl)-1,3-benzodioxole]",Inhibitory effect

# Same assay, conditions: 1000 uM; acetaldehyde as substrate; FIG. 18
row,Structure (SMILES),"effect on enzymatic activity of ALDH2 isozyme, 15-minute kinetic measurements"
1,"C=CCc1ccc2c(c1)OCO2 [safrole, 5-(2-propenyl)-1,3-benzodioxole]",inhibitory effect
